In US9938269B2, “Inhibitor compounds of phosphodiesterase type 10A” (ABBVIE INC., priority 2011, dated 2018) one finds IC50 and microsomal CLint data, which are given here for 27 compounds.

Where a name gives a salt, the structure may show the parent alone.

The target of one data set is T1, PDE10A (human) (Homo sapiens, UniProt Q9Y233).
T1 construct: purchased BPS Bioscience
Description: Measurement of PDE activity (HTRF cAMP kit), human PDE10A. It is filed as biochemical. The settings on record: PDE enzymatic reaction, substrate 20 nM for PDE10, 60 minutes at 29 C. The method in brief: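 HTRF detection of cAMP left after hydrolysis, expressed as percent of uninhibited control to derive IC50. Reaction: serially diluted inhibitor mixed with recombinant enzyme, started with 20 nM cAMP, 60 min at 29 °C in Tris-HCl pH 7.5 buffer containing MgCl2 and BSA.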
A general note: In TR-FRET formats the signal depends on donor and acceptor labels being close together.

A short description of data set [1]: Determination of the microsomal half-life, rat liver microsomes. The settings on record: rat, liver microsomes, pH 7.4. (In general: Liver microsomes are a subcellular fraction often used to study metabolism.)
The nature of data set [2]: Determination of the microsomal half-life, human liver microsomes. The settings on record: human, liver microsomes, pH 7.4.

T1 sequence (Q9Y233 whole entry): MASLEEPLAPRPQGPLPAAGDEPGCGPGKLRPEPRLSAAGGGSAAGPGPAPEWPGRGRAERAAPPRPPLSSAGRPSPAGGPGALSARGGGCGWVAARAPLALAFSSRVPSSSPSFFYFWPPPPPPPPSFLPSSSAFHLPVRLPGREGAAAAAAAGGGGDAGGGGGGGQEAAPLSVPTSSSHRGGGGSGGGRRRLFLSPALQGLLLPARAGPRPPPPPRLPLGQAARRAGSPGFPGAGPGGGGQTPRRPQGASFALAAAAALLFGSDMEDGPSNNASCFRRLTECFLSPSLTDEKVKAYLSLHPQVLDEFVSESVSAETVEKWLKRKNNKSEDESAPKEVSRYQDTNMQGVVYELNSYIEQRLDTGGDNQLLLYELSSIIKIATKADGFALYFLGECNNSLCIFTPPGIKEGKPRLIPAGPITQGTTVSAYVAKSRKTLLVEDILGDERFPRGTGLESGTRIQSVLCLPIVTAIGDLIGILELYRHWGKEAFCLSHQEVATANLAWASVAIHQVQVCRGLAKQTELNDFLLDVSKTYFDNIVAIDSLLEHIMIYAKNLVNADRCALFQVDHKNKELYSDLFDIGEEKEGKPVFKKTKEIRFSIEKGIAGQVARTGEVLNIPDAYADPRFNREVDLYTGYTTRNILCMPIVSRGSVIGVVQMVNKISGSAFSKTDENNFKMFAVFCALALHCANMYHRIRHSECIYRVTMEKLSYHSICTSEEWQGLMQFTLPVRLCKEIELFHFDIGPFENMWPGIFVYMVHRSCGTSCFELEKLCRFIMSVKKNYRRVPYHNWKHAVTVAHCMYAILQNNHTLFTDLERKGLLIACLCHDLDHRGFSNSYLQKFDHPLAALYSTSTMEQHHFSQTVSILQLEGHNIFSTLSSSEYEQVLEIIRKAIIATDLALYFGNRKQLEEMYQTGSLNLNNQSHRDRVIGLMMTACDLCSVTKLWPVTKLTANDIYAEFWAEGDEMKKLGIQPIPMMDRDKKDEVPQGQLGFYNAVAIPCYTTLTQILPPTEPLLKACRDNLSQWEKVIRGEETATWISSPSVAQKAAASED

For orientation: IC50 means the concentration needed to halve the response being measured. One may read the microsomal CLint as a measure of how fast metabolising enzymes remove a compound, apart from limits set by blood flow. A low value points to greater metabolic stability. In turn, `O=C1c2c(N3CCOCC3)ccnc2CN1CCc1nc2ccc(F)cc2s1` [compound 405, 6-[2-(6-Fluoro-1,3-benzothiazol-2-yl)ethyl]-4-morpholino-7H-pyrrolo[3,4-b]pyridin-5-one] registered an IC50 against PDE10A (human) of less than 100 nM. In addition, the intrinsic metabolic clearance (microsomal CLint) at 0.5 μM in data set [1] is 100 to 220 µL/min/mg; in data set [2] it was greater than 220 µL/min/mg.

Regarding `O=C1c2cccc(N3CCS(=O)(=O)CC3)c2CN1CCc1ccc2ccccc2n1` [Example 131, 4-(1,1-Dioxo-1-thiomorpholin-4-yl)-2-(2-quinolin-2-yl-ethyl)-2,3-dihydro-isoindol-1-one], the IC50 against PDE10A (human) was 200 to 500 nM. For the same compound, the intrinsic metabolic clearance (microsomal CLint) at 0.5 μM in data set [1] and in data set [2] was less than 100 µL/min/mg throughout.

Compound `O=C1c2c(-c3cn[nH]c3)ccc(F)c2CN1CCc1cn2ccccc2n1` [Example 383, 4-Fluoro-2-(2-imidazo[1,2-a]pyridin-2-yl-ethyl)-7-(1H-pyrazol-4-yl)-2,3-dihydro-isoindol-1-one] returned a half-inhibitory concentration (IC50) against PDE10A (human) of less than 100 nM. Besides, the intrinsic metabolic clearance (microsomal CLint) at 0.5 μM in data set [1] and in data set [2] was less than 100 µL/min/mg each time.

In the case of `O=C1c2c(N3CCC4(COC4)C3)ccnc2CN1CCc1nc2ccccc2s1` [compound 424, 6-[2-(1,3-Benzothiazol-2-yl)ethyl]-4-(2-oxa-7-azaspiro[3.4]octan-7-yl)-7H-pyrrolo[3,4-b]pyridin-5-one], the IC50 against PDE10A (human) is less than 100 nM. Further, the microsomal CLint at 0.5 μM in data set [1] and in data set [2] was less than 100 µL/min/mg throughout.

As to `O=C1c2c(N3CCC(CF)C3)ccnc2CN1CCc1nc2ccccc2s1` (stereo not drawn) [compound 387, 6-[2-(1,3-Benzothiazol-2-yl)ethyl]-4-[3-(fluoromethyl)pyrrolidin-1-yl]-7H-pyrrolo[3,4-b]pyridin-5-one], the IC50 at PDE10A (human) was less than 100 nM. Further, the microsomal CLint at 0.5 μM is greater than 220 µL/min/mg in data set [1] and 100 to 220 µL/min/mg in data set [2].

On PDE10A (human), `O=C1c2c(cc(F)cc2-c2ccncc2)CN1CCc1ccc2ccccc2n1` [Example 15, 5-Fluoro-7-pyridin-4-yl-2-(2-quinolin-2-yl-ethyl)-2,3-dihydro-isoindol-1-one] came in with an IC50 of less than 100 nM. The microsomal CLint at 0.5 μM is greater than 220 µL/min/mg in data set [1] and 100 to 220 µL/min/mg in data set [2].

Take `O=C1c2c(N3CCOCC3)ccnc2CN1CCc1ccc(Cl)cn1` [compound 505, 6-[2-(5-Chloro-2-pyridyl)ethyl]-4-morpholino-7H-pyrrolo[3,4-b]pyridin-5-one]: the IC50 against PDE10A (human) fell in the range of 200 to 500 nM. Also, the microsomal CLint at 0.5 μM in data set [1] and in data set [2] was less than 100 µL/min/mg in each case.

On to `O=C1c2c(N3CCOCC3)ccnc2CN1CCc1nc2ccccc2o1` [compound 417, 6-[2-(1,3-Benzoxazol-2-yl)ethyl]-4-morpholino-7H-pyrrolo[3,4-b]pyridin-5-one], for which the IC50 on PDE10A (human) was in the range of 100 to 200 nM. Besides, the intrinsic metabolic clearance (microsomal CLint) at 0.5 μM in data set [1] and in data set [2] was less than 100 µL/min/mg each time.

As for `O=C1c2c(N3CCOCC3)ccnc2CN1CCc1nc2ccccn2n1` [Example 227, 4-Morpholin-4-yl-6-(2-[1,2,4]triazolo[1,5-a]pyridin-2-yl-ethyl)-6,7-dihydro-pyrrolo[3,4-b]pyridin-5-one], the concentration for half-maximal inhibition (IC50) against PDE10A (human) was less than 100 nM. The microsomal CLint at 0.5 μM in data set [1] and in data set [2] was less than 100 µL/min/mg in each case.

The compound `O=C1c2c(-c3cncnc3)ccnc2CN1CCc1nc2ccccn2n1` [Example 215, 4-Pyrimidin-5-yl-6-(2-[1,2,4]triazolo[1,5-a]pyridin-2-yl-ethyl)-6,7-dihydro-pyrrolo[3,4-b]pyridin-5-one] came in with an IC50 on PDE10A (human) of 200 to 500 nM. Also, the intrinsic clearance (microsomal CLint) at 0.5 μM in data set [1] and in data set [2] was less than 100 µL/min/mg throughout.

`O=C1c2c(cccc2-c2cncnc2)CN1CCc1ccc2sccc2n1` [Example 559, 7-Pyrimidin-5-yl-2-(2-thieno[3,2-b]pyridin-5-ylethyl)isoindolin-1-one] registered an IC50 at PDE10A (human) of less than 100 nM. Also, the intrinsic metabolic clearance (microsomal CLint) at 0.5 μM in data set [1] is 100 to 220 µL/min/mg; in data set [2], greater than 220 µL/min/mg.

`O=C1c2c(-c3ccoc3)ccnc2CN1CCc1cn2ccccc2n1` [compound 414, 4-Furan-3-yl-6-(2-imidazo[1,2-a]pyridin-2-yl-ethyl)-6,7-dihydro-pyrrolo[3,4-b]pyridin-5-one] had an IC50 against PDE10A (human) of less than 100 nM. Also, the microsomal CLint at 0.5 μM in data set [1] and in data set [2] was less than 100 µL/min/mg throughout.

In turn, `O=C1c2c(OCF)ccc(-c3cncnc3)c2C(=O)N1CCc1cn2ccccc2n1` [compound 545, 4-(Fluoromethoxy)-2-(2-imidazo[1,2-a]pyridin-2-ylethyl)-7-pyrimidin-5-yl-isoindoline-1,3-dione] yielded an IC50 at PDE10A (human) of less than 100 nM. Besides, the microsomal CLint at 0.5 μM in data set [1] and in data set [2] was less than 100 µL/min/mg each time.

As for `O=C1c2c(cccc2-c2ccc3[nH]c(=O)[nH]c3c2)CN1CCc1cn2ccccc2n1` [Example 245, 5-[2-(2-Imidazo[1,2-a]pyridin-2-yl-ethyl)-3-oxo-2,3-dihydro-1H-isoindol-4-yl]-1,3-dihydro-benzoimidazol-2-one], on PDE10A (human), the IC50 was less than 100 nM. The microsomal CLint at 0.5 μM in data set [1] and in data set [2] was less than 100 µL/min/mg each time.

Compound `COc1ccc(N2CCOCC2)c2c1CN(CCc1ccc3ccccc3n1)C2=O` [Example 248, 4-Methoxy-7-morpholin-4-yl-2-(2-quinolin-2-yl-ethyl)-2,3-dihydro-isoindol-1-one] showed a half-inhibitory concentration (IC50) against PDE10A (human) of less than 100 nM. Besides, the microsomal CLint at 0.5 μM in data set [1] and in data set [2] was less than 100 µL/min/mg each time.

Compound `COc1cccc(CCN2Cc3nccc(-c4cccnc4)c3C2=O)n1` [compound 503, 6-[2-(6-Methoxy-2-pyridyl)ethyl]-4-(3-pyridyl)-7H-pyrrolo[3,4-b]pyridin-5-one trifluoroacetate] had an IC50 at PDE10A (human) of 100 to 200 nM. For the same compound, the intrinsic clearance (microsomal CLint) at 0.5 μM in data set [1] and in data set [2] was 100 to 220 µL/min/mg throughout.

Consider `O=C1c2c(-c3ccncc3)ccnc2CN1CCc1nc2ccccc2o1` [compound 418, 6-[2-(1,3-Benzoxazol-2-yl)ethyl]-4-(4-pyridyl)-7H-pyrrolo[3,4-b]pyridin-5-one], for which the IC50 on PDE10A (human) lay within 200 to 500 nM. The microsomal CLint at 0.5 μM in data set [1] and in data set [2] was less than 100 µL/min/mg in each case.

Compound `O=C1c2c(cccc2-c2ccncc2)CN1CCc1nc2ccccc2n1C(F)F` [compound 450, 2-[2-(1-Difluoromethyl-1H-benzoimidazol-2-yl)-ethyl]-7-pyridin-4-yl-2,3-dihydro-isoindol-1-one trifluoroacetate] came in with an IC50 at PDE10A (human) of 200 to 500 nM. Moreover, the microsomal CLint at 0.5 μM was 100 to 220 µL/min/mg in data set [1] and greater than 220 µL/min/mg in data set [2].

At PDE10A (human), `COC(=O)C1CN(Cc2cccc3c2C(=O)N(CCc2ccc4ccccc4n2)C3)C1` [compound 531, 1-[3-Oxo-2-(2-quinolin-2-yl-ethyl)-2,3-dihydro-1H-isoindol-4-ylmethyl]-azetidine-3-carboxylic acid methyl ester] showed an IC50 of less than 100 nM. Moreover, the microsomal CLint at 0.5 μM in data set [1] and in data set [2] was less than 100 µL/min/mg throughout.

`Cn1c(CCN2Cc3cccc(N4CCS(=O)(=O)CC4)c3C2=O)nc2ccccc21` [Example 184, 7-(1,1-Dioxothiomorpholin-4-yl)-2-[2-(1-methyl-1H-benzoimidazol-2-yl)-ethyl]-2,3-dihydro-isoindol-1-one trifluoroacetate] showed a concentration for half-maximal inhibition (IC50) on PDE10A (human) of less than 100 nM. Moreover, the microsomal CLint at 0.5 μM in data set [1] is less than 100 µL/min/mg; in data set [2], 100 to 220 µL/min/mg.

Turning to `O=C1c2c(N3CCOCC3)ccnc2CN1CCc1cn2ccccc2n1` [Example 270, 6-(2-Imidazo[1,2-a]pyridin-2-yl-ethyl)-4-morpholin-4-yl-6,7-dihydro-pyrrolo[3,4-b]pyridin-5-one di-trifluoroacetate], the IC50 against PDE10A (human) was less than 100 nM. Moreover, the intrinsic metabolic clearance (microsomal CLint) at 0.5 μM in data set [1] and in data set [2] was less than 100 µL/min/mg throughout.

On PDE10A (human), `O=C1c2c(-c3ccncc3)ccnc2CN1CCc1nc2ccc(Cl)cc2s1` [compound 403, 6-[2-(6-Chloro-1,3-benzothiazol-2-yl)ethyl]-4-(4-pyridyl)-7H-pyrrolo[3,4-b]pyridin-5-one] registered an IC50 of less than 100 nM. Moreover, the results for the microsomal CLint at 0.5 μM in data set [1] and in data set [2] were 100 to 220 µL/min/mg and less than 100 µL/min/mg, respectively.

In the case of `COc1ccc(-c2ccncc2)c2c1CN(CCc1cn3ccccc3n1)C2=O` [Example 374, 2-(2-Imidazo[1,2-a]pyridin-2-yl-ethyl)-4-methoxy-7-pyridin-4-yl-2,3-dihydro-isoindol-1-one], the IC50 against PDE10A (human) was less than 100 nM. Besides, the microsomal CLint at 0.5 μM in data set [1] and in data set [2] was less than 100 µL/min/mg throughout.

`COc1ccnc2c1C(=O)N(CCc1ccc3ccccc3n1)C2` [compound 528, 4-Methoxy-6-(2-quinolin-2-yl-ethyl)-6,7-dihydro-pyrrolo[3,4-b]pyridin-5-one] yielded an IC50 against PDE10A (human) of less than 100 nM. In addition, the microsomal CLint at 0.5 μM in data set [1] and in data set [2] was less than 100 µL/min/mg each time.

As for `O=C1c2cccc(-c3cc[nH]n3)c2CN1CCc1ccc2ccccc2n1` [Example 200, 4-(1H-Pyrazol-3-yl)-2-(2-quinolin-2-yl-ethyl)-2,3-dihydro-isoindol-1-one], the half-inhibitory concentration (IC50) against PDE10A (human) is less than 100 nM. Besides, the microsomal CLint at 0.5 μM in data set [1] was greater than 220 µL/min/mg; in data set [2], 100 to 220 µL/min/mg.

For `Cc1ccc(CCN2Cc3nccc(N4CCOCC4)c3C2=O)nc1` [compound 551, 6-[2-(5-Methyl-2-pyridyl)ethyl]-4-morpholino-7H-pyrrolo[3,4-b]pyridin-5-one], the IC50 at PDE10A (human) is less than 100 nM. Also, the microsomal CLint at 0.5 μM in data set [1] and in data set [2] was less than 100 µL/min/mg throughout.

At PDE10A (human), `O=C1c2cccc(-c3ccncc3)c2CN1CCc1cn2ccccc2n1` [Example 316, 2-(2-Imidazo[1,2-a]pyridin-2-yl-ethyl)-4-pyridin-4-yl-2,3-dihydro-isoindol-1-one] gave an IC50 of less than 100 nM. Further, the microsomal CLint at 0.5 μM was 100 to 220 µL/min/mg in data set [1] and less than 100 µL/min/mg in data set [2].
